The values that follow come from publication PMC5443537, “The human asparaginase enzyme (ASPG) inhibits growth in leukemic cells” (PLoS ONE, 2017).

The target of data set [1] is T1, GST-ASPG (human ASPG, 60 kDa Lysophospholipase) (Homo sapiens, UniProt Q86U10).
T1 construct: full-length cDNA in pGEX-4T3, N-terminal GST tag kept, E. coli BL21, glutathione Sepharose
T1 sequence (Q86U10 1-573): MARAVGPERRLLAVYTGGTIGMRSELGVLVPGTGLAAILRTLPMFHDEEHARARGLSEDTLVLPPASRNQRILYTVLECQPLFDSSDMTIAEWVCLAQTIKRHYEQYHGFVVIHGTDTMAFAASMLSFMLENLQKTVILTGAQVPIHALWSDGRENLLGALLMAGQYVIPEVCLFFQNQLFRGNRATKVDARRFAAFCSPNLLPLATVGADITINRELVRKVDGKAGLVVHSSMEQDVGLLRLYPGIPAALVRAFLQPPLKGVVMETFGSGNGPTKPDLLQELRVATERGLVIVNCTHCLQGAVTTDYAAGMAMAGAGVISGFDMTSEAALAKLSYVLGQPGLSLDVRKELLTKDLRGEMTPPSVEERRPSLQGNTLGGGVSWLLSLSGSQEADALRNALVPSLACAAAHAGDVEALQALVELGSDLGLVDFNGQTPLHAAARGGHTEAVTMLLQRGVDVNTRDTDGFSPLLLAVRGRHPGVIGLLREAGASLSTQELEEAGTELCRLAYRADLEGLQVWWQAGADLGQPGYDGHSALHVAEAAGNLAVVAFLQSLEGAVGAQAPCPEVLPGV
The experiment in a line: PAF acetylhydrolase assay kit (2-thio PAF, DTNB, […] nm). In kind it is biochemical. The note with it: 200 µM 2-thio-PAF, Tris/HCl pH 7.2, 10 min pre-incubation.

Data set [2] has as its target T1, GST-ASPG (human ASPG, 60 kDa Lysophospholipase). Briefly: Nessler ammonia assay, steady-state inhibition kinetics. In kind it is biochemical.
Substrate in data set [3]: NC(=O)C[C@H](N)C(=O)O
Briefly: Nessler ammonia assay, Hill fit. In kind it is biochemical, Homo sapiens. The note with it: Tris/HCl pH 8.6, 37 °C, 30 min, 3-39 mM substrate, sigmoidal kinetics, Hill slope 6.9.

Broadly, the Ki is a measure of affinity in units of concentration, obtained from inhibition or displacement. A high value points to lower affinity. Take `NC(=O)C[C@@H](N)C(=O)O` [D-asparagine]: in data set [1], the “residual PAF-AH activity at 40 and 200 mM” value was “PAF-AH activity of GST-ASPG was also significantly inhibited by D-asparagine”. The molecule also displayed a Ki in data set [2] of 71 mM.

B1: GST-ASPG (human ASPG, 60 kDa Lysophospholipase) (Homo sapiens) (protein)
chain: MARAVGPERRLLAVYTGGTIGMRSELGVLVPGTGLAAILRTLPMFHDEEHARARGLSEDTLVLPPASRNQRILYTVLECQPLFDSSDMTIAEWVCLAQTIKRHYEQYHGFVVIHGTDTMAFAASMLSFMLENLQKTVILTGAQVPIHALWSDGRENLLGALLMAGQYVIPEVCLFFQNQLFRGNRATKVDARRFAAFCSPNLLPLATVGADITINRELVRKVDGKAGLVVHSSMEQDVGLLRLYPGIPAALVRAFLQPPLKGVVMETFGSGNGPTKPDLLQELRVATERGLVIVNCTHCLQGAVTTDYAAGMAMAGAGVISGFDMTSEAALAKLSYVLGQPGLSLDVRKELLTKDLRGEMTPPSVEERRPSLQGNTLGGGVSWLLSLSGSQEADALRNALVPSLACAAAHAGDVEALQALVELGSDLGLVDFNGQTPLHAAARGGHTEAVTMLLQRGVDVNTRDTDGFSPLLLAVRGRHPGVIGLLREAGASLSTQELEEAGTELCRLAYRADLEGLQVWWQAGADLGQPGYDGHSALHVAEAAGNLAVVAFLQSLEGAVGAQAPCPEVLPGV
notes: full-length cDNA in pGEX-4T3, N-terminal GST tag kept, E. coli BL21, glutathione Sepharose
Consider B1, for which the K0.5 in data set [3] amounted to 13 mM.
